The values that follow come from patent US12630492B2, “Cannabinoid derivatives” (CANOPY GROWTH CORPORATION, priority 2019, dated 2026).

In one assay the target is T1, human CB2 receptor (Homo sapiens, UniProt P34972).
T1 construct: host or cells: CHO-K1 (Chinese hamster ovary) cells, stably transfected; membranes prepared in house
As to the kind of experiment: CB2 radioligand competitive binding assay ([3H]CP 55,940 displacement).

The target of another assay is T2, human CB1 receptor (Homo sapiens, UniProt P21554).
T2 construct: host or cells: CHO-K1 (Chinese hamster ovary) cells, stably transfected; membranes prepared in house
As to the kind of experiment: CB1 radioligand competitive binding assay ([3H]CP 55,940 displacement). The conditions noted are these: [3H]CP 55,940 displacement, membranes of CHO-K1 cells expressing human CB1 receptor; read-out: CB1 IC50.

T1 sequence (P34972 whole entry): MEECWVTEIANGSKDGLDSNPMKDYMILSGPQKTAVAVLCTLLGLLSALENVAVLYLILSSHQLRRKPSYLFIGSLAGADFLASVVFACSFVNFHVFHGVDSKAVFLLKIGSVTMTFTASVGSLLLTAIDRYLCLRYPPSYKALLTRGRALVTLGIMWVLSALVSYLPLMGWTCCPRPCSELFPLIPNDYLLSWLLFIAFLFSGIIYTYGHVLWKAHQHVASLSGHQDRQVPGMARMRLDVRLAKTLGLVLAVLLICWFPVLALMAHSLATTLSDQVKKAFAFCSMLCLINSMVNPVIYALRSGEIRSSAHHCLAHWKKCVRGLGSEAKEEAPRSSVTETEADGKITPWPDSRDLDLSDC
T2 sequence (P21554 whole entry): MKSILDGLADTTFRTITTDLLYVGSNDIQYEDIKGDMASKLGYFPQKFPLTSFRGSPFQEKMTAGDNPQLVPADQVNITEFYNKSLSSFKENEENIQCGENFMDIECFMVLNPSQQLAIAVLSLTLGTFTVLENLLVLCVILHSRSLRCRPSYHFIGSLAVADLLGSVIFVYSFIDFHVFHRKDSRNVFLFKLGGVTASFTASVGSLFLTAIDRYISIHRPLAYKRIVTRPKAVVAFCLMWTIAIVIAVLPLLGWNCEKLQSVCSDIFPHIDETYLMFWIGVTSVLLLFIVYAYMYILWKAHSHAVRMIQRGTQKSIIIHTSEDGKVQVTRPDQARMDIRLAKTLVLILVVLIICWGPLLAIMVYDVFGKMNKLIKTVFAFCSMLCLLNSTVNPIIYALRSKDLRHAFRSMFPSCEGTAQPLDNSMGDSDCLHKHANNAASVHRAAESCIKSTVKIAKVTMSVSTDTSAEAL

As to `C=C(C)[C@@H]1CCC(C)=C[C@H]1c1c(O)cc(CCC)cc1OCOC(=O)OCC` [Compound 24d, ethyl (((6-hydroxy-5′-methyl-2′-(prop-1-en-2-yl)-4-propyl-1′,2′,3′,4′-tetrahydro-[1,1′-biphenyl]-2-yl)oxy)methyl) carbonate], the IC50 at human CB2 receptor ([3H]CP 55,940 displacement, membranes of CHO-K1 cells expressing human CB2 receptor, read-out: CB2 IC50) was in the range of 50 to 990 nM; at human CB1 receptor, 1000 to 9990 nM. Moreover, the “Selectivity CB2” value at human CB2 receptor (fold difference between CB1 and CB2 binding, printed in column of receptor with higher affinity, 1.00 in both = same affinity) worked out at 1.52.

For orientation: IC50 means the midpoint of a concentration-inhibition curve.
